In patent US10316041B2, “Spiro-lactam NMDA receptor modulators and uses thereof” (Apytinyx Inc., priority 2013, dated 2019):
Where two headings read alike, the source gives them in different places.

Tests used:
[1] = Porsolt test (floating time); format: in vivo; conditions: 3 mg/kg, IV, 1 hour post dose
[2] = system: Schaffer collateral-CA1 synapses in hippocampal slices; test: Long term potentiation in hippocampal slices; format: cell-based, rat
Experimental: Assays were conducted as described in Zhang et al. (Zhang, X. L., Sullivan, J. A., Moskal, J. R., Stanton, P. K., 2008. A NMDA receptor glycine site partial agonist, GLYX-13, simultaneously enhances LTP and reduces LTD at Schaffer collateral-CA1 synapses in hippocampus. Neuropharmacology. 55, 1238-50) Sprague-Dawley rats (12-18 days old; Taconic Farms) were deeply anesthetized with isoflurane and decapitated. Rat brains were removed rapidly, submerged in ice-cold artificial cerebrospinal fluid (ACSF, 2-4° C.), which contained (in mM): 124 NaCl, 4 KCl, 2 MgSO4, 2 CaCl2, 1.25 NaH2PO4, 26 NaHCO3, 10 glucose; at pH 7.4, gassed continuously with 95% O2/5% CO2). The rat brains were hemisected, the frontal lobes cut off, and individual hemispheres glued using cyanoacrylate adhesive onto a stage immersed in ice-cold ACSF gassed continuously with 95% O2/5% CO2 during slicing. Coronal slices (400 μm thick) were cut using a Vibratome (Leica VT1200S), and transferred to an interface holding chamber for incubation at room temperature for a minimum of one hour before transferring to a Haas-style interface recording chamber continuously perfused at 3 ml/min with oxygenated ACSF at 32±0.5° C. […] A bipolar stainless steel stimulating electrode (FHC Co.) was placed on Schaffer collateral-commissural fibers in CA3 stratum radiatum, and constant current stimulus intensity adjusted to evoke approximately half-maximal fEPSPs once each 30 s ([…]; 100 μs duration). fEPSP slope was measured before and after induction of LTP by linear interpolation from 20 to 80% of maximum negative deflection, and slopes confirmed to be stable to within ±10% for at least 15 min before commencing an experiment. […] The signals were recorded using a Multiclamp 700B amplifier and digitized with a Digidata 1322 (Axon Instruments, USA). Data were analyzed using pClamp software (version 9, Axon Instruments) on an IBM-compatible personal computer.

[3] = molecular target: T1, NMDA receptor (rat cortical membranes) (Rattus norvegicus, UniProt P35439); test: [3H]MK-801 binding assay (potentiation of binding); conditions: for Activity (%): maximal activity, % maximal stimulation (1 mM glycine)
T1 construct: from tissue; host or cells: rat cerebral cortex membranes
Experimental: Assays were conducted as described in Moskal et al. (Moskal, J. R., Kuo, A. G., Weiss, C., Wood, P. L., O'Connor Hanson, A., Kelso, S., Harris, R. B., Disterhoft, J. F., 2005. GLYX-13: a monoclonal antibody-derived peptide that acts as an N-methyl-D-aspartate receptor modulator. Neuropharmacology. 49, 1077-87) The potentiation of [^3H]MK-801 binding (5 nM; 22.5 Ci/mmol) to well washed rat cortical membranes (200 μg) was measured under non-equilibrium conditions (15 min @ 25° C.) in the presence of increasing concentrations of test compounds and 50 μM glutamate. Zero levels were determined in the absence of any glycine ligand and in the presence of 30 μM 5.7 DCKA. Maximal stimulation was measured in the presence of 1 mM glycine, and 50 μM glutamate was present in all samples. The facilitation of [^3H]MK-801 binding by tests compounds was calculated by using a 3 parameter log agonist vs. response equation (Graph pad Prism, USA) and potency (EC50 expressed in pM) and maximal activity (% maximal stimulation) were calculated for the test compound.

[4] = read-out: [3H] MK-801 binding assay: EC50
[5] = potentiation of [3H]MK-801 binding, 50 μM glutamate, rat cortical membranes, read-out: pEC50 (converted)

| Molecule | EC50 [3, 4] [nM] | Activity (%) [3] [%] | EC50 [3, 5] [nM] | other results |
| --- | --- | --- | --- | --- |
| CC(=O)N1CCCC12CN(CC(=O)N[C@H](C(N)=O)[C@@H](C)O)C2=O (single isomer, unassigned) [Compound 6S-FNL-7-F2] | – | – | – | Unified Activity Data: Porsolt Floating Time Inhibition (Percent) [1]: 80%; Unified Activity Data: LTP Augmentation (Percent) ([2]; LTP Concentration 1 uM): 150% |
| C[C@@H](O)[C@H](NC(=O)CN1CC2(CCCN2C(=O)OCc2ccccc2)C1=O)C(N)=O (stereo in doubt) [Compound 6S-FNL-4, Benzyl 2-(2-((1-amino-3-hydroxy-1-oxobutan-2-yl)amino)-2-oxoethyl)-1-oxo-2,5-diazaspiro [3.4] octane-5-carboxylate] | > 10000 | – | – | – |
| CC(=O)O[C@H](C)[C@H](NC(=O)CN1CC2(CCCN2)C1=O)C(N)=O (stereo partly drawn) [Compound 6S-FNL-3, (2R, 3S)-4-amino-4-oxo-3-(2-(1-oxo-2,5-diazaspiro [3.4]octan-2-yl)acetamido) butan-2-yl acetate] | 1690 | – | – | – |
| (2R, 3S)-4-amino-3-(2-(5-(1-benzyl-5-methyl-1H-1, 2, 3-triazole-4-carbonyl)-1-oxo-2, 5-diazaspiro [3.4] octan-2-yl) acetamido)-4-oxobutan-2-yl acetate [Compound B] | 0.00727 | 47 | 0.006 | Unified Activity Data: Porsolt Floating Time Inhibition (Percent) [1]: 86%; Unified Activity Data: LTP Augmentation (Percent) ([2]; LTP Concentration 0.1 uM): 110%; long-term potentiation after high frequency stimulation of Schaffer collateral-evoked NMDA e.p.s.c.s in CA1 pyramidal neurons ([2]; tested at 0.11 μM, FIG. 5): increased long-term potentiation |

More lines, main results first:

| EC50 [3, 4] [nM] | Activity (%) [3] [%] | EC50 [3, 5] [nM] | Molecule | other results |
| --- | --- | --- | --- | --- |
| – | 10 | 0.007 | C[C@@H](O)[C@H](NC(=O)CN1CC2(CCCN2C(=O)c2ncnn2C)C1=O)C(N)=O (stereo partly drawn) [Compound C, (2S,3R)-3-hydroxy-2-(2-(5-(1-methyl-1H-1,2,4-triazole-5-carbonyl)-1-oxo-2,5-diazaspiro[3.4]octan-2-yl)acetamido) butanamide] | – |
| – | 5 | 0.159 | C[C@@H](O)[C@H](NC(=O)CN1CC2(CCCN2C(=O)c2ncnn2C)C1=O)C(=O)N1CCCC1 (stereo partly drawn) [Compound D, N-((2S, 3R)-3-hydroxy-1-oxo-1-(pyrrolidin-1-yl)butan-2-yl)-2-(5-(1-methyl-1H-1,2,4-triazole-5-carbonyl)-1-oxo-2,5-diazaspiro[3.4]octan-2-yl) acetamide] | – |
| – | 20 | 0.195 | CC(=O)N1CCCC12CN(CC(=O)N[C@H](C(N)=O)[C@@H](C)O)C2=O (stereo partly drawn) [Compound H, (2S,3R)-2-(2-(5-acetyl-1-oxo-2,5-diazaspiro[3.4]octan-2-yl)acetamido)-3-hydroxy butanamide] | – |
